Activity calls are given as the source filed them. No cut-off for these calls is given here.
Assays:
[1] = target: T1, Delta-type opioid receptor (Homo sapiens, UniProt P41143); test: Displacement of [125I]deltorphin 2 from human recombinant delta opioid receptor expressed in HEK cells at 100 uM; assay type: cell-based; settings: HEK293
[2] = target: T1, Delta-type opioid receptor; test: biochemical

T1 sequence (P41143 whole entry): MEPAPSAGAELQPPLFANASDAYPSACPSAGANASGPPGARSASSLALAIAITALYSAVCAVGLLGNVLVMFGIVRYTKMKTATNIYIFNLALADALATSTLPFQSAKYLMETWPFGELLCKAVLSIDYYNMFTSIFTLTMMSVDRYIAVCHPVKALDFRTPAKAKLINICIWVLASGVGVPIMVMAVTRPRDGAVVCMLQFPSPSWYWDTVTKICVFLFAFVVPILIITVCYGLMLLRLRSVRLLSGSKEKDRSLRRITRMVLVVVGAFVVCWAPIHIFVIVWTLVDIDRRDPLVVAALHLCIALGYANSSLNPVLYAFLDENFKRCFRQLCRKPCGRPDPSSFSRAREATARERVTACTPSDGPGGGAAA

Structure (SMILES)	Activity [1]	IC50 [2] [µM]
CCCCCC(=O)NCCC[N+]12CCC[C@@H]1CC1=C(C(=O)CC(C)O1)[C@H]2C (stereo partly drawn)	inactive	–
CCCCCC(=O)NCCCN1CCC[C@H]1CC(=O)O [PERIPENTONINE C]	–	30.9
CCCCCC(=O)NCCCN1CCCC1CC(=O)c1c(C)cccc1O (stereo not drawn) [PERIPENTADENINE]	–	11.4
